According to PubChem BioAssay AID330 (DTP/NCI, 2004):
“And” between values parts separate entries of the source, which are not always exact repeats. Identical values can stand only once. Inconclusive results and toxic doses are left out.

Test system: P388 leukemia ip, CD2F1 mice, survival T/C
Assay: NCI In Vivo Anticancer Drug Screen. Data for tumor model P388 Leukemia (intraperitoneal) in CD2F1 (CDF1) mice
Conditions: endpoint: median survival time, higher = longer survival
How it was run: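 Mice carrying the transplanted tumor received test compound or vehicle. Survival was recorded in each group, and the value is the treated-group measurement divided by that of the vehicle-treated control group.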

[1] = dose: 50.0 mg/kg/injection, schedule: Q01DX005 (ip), vehicle: saline with Tween-80
[2] = dose: 50.0 mg/kg/injection, schedule: Q01DX009 (ip), vehicle: Klucel (hydroxypropylcellulose) (HPC)
[3] = dose: 50.0 mg/kg/injection, schedule: Q01DX009 (ip), vehicle: saline
[4] = dose: 100.0 mg/kg/injection, schedule: Q01DX009 (ip), vehicle: Klucel (hydroxypropylcellulose) (HPC)
[5] = dose: 100.0 mg/kg/injection, schedule: Q01DX009 (ip), vehicle: saline
[6] = dose: 200.0 mg/kg/injection, schedule: Q01DX009 (ip), vehicle: Klucel (hydroxypropylcellulose) (HPC)

For `O/N=C1/CCN2CCCc3cccc1c32`, the T/C (dose: 132.0 mg/kg/injection, schedule: Q01DX001 (ip), vehicle: saline with Tween-80) was 95 % of control, the T/C (dose: 200.0 mg/kg/injection, schedule: Q01DX001 (ip), vehicle: saline with Tween-80) was 100 % of control and the T/C (dose: 300.0 mg/kg/injection, schedule: Q01DX001 (ip), vehicle: saline with Tween-80) was 100 % of control.
With `CCP(C)(=O)c1ccccc1` (stereo not given) the T/C (dose: 100.0 mg/kg/injection, schedule: Q04DX002 (ip), vehicle: saline with Tween-80) was 96 % of control, the T/C (dose: 200.0 mg/kg/injection, schedule: Q04DX002 (ip), vehicle: saline with Tween-80) was 97 % of control and the T/C (dose: 400.0 mg/kg/injection, schedule: Q04DX002 (ip), vehicle: saline with Tween-80) was 100 % of control.
In the case of `Nc1ccc2nc[nH]c2c1`, the T/C (dose: 25.0 mg/kg/injection, schedule: Q04DX002 (ip), vehicle: Klucel (hydroxypropylcellulose) (HPC)) is reported as 101 % of control, the T/C (dose: 50.0 mg/kg/injection, schedule: Q04DX002 (ip), vehicle: Klucel (hydroxypropylcellulose) (HPC)) is reported as 104 % of control and the T/C (dose: 100.0 mg/kg/injection, schedule: Q04DX002 (ip), vehicle: Klucel (hydroxypropylcellulose) (HPC)) is reported as 101 % of control and 90 % of control.
For `CC(=O)Nc1[c-]cccc1.CC(=O)Nc1[c-]cccc1.CC(=O)O.CC(=O)O.[Pd].[Pd]`, the T/C (dose: 6.25 mg/kg/injection, schedule: Q01DX005 (ip), vehicle: saline with Tween-80) was 94 % of control, the T/C (dose: 12.5 mg/kg/injection, schedule: Q01DX005 (ip), vehicle: saline with Tween-80) was 95 % of control and 98 % of control and the T/C (dose: 25.0 mg/kg/injection, schedule: Q01DX005 (ip), vehicle: saline with Tween-80) was 119 % of control and 98 % of control. For the same compound, the T/C [1] was 100 % of control and 110 % of control.
`CCS(=O)(=O)Nc1cccc(Nc2c3cccc(C)c3nc3c(C)cccc23)c1OC` was tested, and the T/C (dose: 0.7 mg/kg/injection, schedule: Q01DX009 (ip), vehicle: saline with Tween-80) was 121 % of control, the T/C (dose: 5.5 mg/kg/injection, schedule: Q01DX009 (ip), vehicle: saline with Tween-80) was 157 % of control and the T/C (dose: 6.25 mg/kg/injection, schedule: Q01DX009 (ip), vehicle: saline with Tween-80) was 171 % of control. For the same compound, the T/C (dose: 11.0 mg/kg/injection, schedule: Q01DX009 (ip), vehicle: saline with Tween-80) was 172 % of control and 217 % of control, the T/C (dose: 12.5 mg/kg/injection, schedule: Q01DX009 (ip), vehicle: saline with Tween-80) was 177 % of control and the T/C (dose: 16.7 mg/kg/injection, schedule: Q01DX009 (ip), vehicle: saline with Tween-80) was 220 % of control. For the same compound, the T/C (dose: 25.0 mg/kg/injection, schedule: Q01DX009 (ip), vehicle: saline with Tween-80) was 155 % of control and 266 % of control, the T/C (dose: 37.5 mg/kg/injection, schedule: Q01DX009 (ip), vehicle: saline with Tween-80) was 86 % of control and the T/C (dose: 50.0 mg/kg/injection, schedule: Q01DX009 (ip), vehicle: saline with Tween-80) was 91 % of control.
For `Cc1nc2sc3c(c2c2nncn12)CCCC3`, the T/C (dose: 50.0 mg/kg/injection, schedule: Q01DX005 (ip), vehicle: Klucel (hydroxypropylcellulose) (HPC)) was 103 % of control, the T/C (dose: 100.0 mg/kg/injection, schedule: Q01DX005 (ip), vehicle: Klucel (hydroxypropylcellulose) (HPC)) was 97 % of control and the T/C (dose: 200.0 mg/kg/injection, schedule: Q01DX005 (ip), vehicle: Klucel (hydroxypropylcellulose) (HPC)) was 97 % of control.
With `CS(=O)(=O)Oc1ccc[nH]c1=O` the T/C (dose: 6.25 mg/kg/injection, schedule: Q01DX009 (ip), vehicle: saline) was 110 % of control, the T/C (dose: 12.5 mg/kg/injection, schedule: Q01DX009 (ip), vehicle: Klucel (hydroxypropylcellulose) (HPC)) was 93 % of control and the T/C (dose: 12.5 mg/kg/injection, schedule: Q01DX009 (ip), vehicle: saline) was 121 % of control. The T/C (dose: 25.0 mg/kg/injection, schedule: Q01DX009 (ip), vehicle: Klucel (hydroxypropylcellulose) (HPC)) was 103 % of control, the T/C (dose: 25.0 mg/kg/injection, schedule: Q01DX009 (ip), vehicle: saline) was 115 % of control and the T/C [2] was 104 % of control. The T/C [3] was 118 % of control, the T/C [4] was 97 % of control and the T/C [5] was 109 % of control. The T/C [6] was 98 % of control and the T/C (dose: 400.0 mg/kg/injection, schedule: Q01DX009 (ip), vehicle: Klucel (hydroxypropylcellulose) (HPC)) was 97 % of control.
With `C=C(C)c1ccc([Si](C)(C)C)cc1` the T/C [3] was 104 % of control, the T/C [5] was 101 % of control and the T/C (dose: 200.0 mg/kg/injection, schedule: Q01DX009 (ip), vehicle: saline) was 109 % of control.
For `COc1ccc(CNC(=O)C(CO)N2C(=O)c3ccccc3C2=O)cc1` (stereo not given), the T/C [1] was 96 % of control, the T/C (dose: 100.0 mg/kg/injection, schedule: Q01DX005 (ip), vehicle: saline with Tween-80) was 100 % of control and the T/C (dose: 200.0 mg/kg/injection, schedule: Q01DX005 (ip), vehicle: saline with Tween-80) was 90 % of control.
With `O=S1(=O)CCN(C2CCS(=O)(=O)C2)CC1` (stereo not given) the T/C [2] was 90 % of control, the T/C [4] was 99 % of control and the T/C [6] was 90 % of control.
For `COc1ccc2ccc(C=O)cc2c1OC`, the T/C (dose: 25.0 mg/kg/injection, schedule: Q01DX009 (ip), vehicle: other) was 104 % of control, the T/C (dose: 50.0 mg/kg/injection, schedule: Q01DX009 (ip), vehicle: other) was 95 % of control and the T/C (dose: 100.0 mg/kg/injection, schedule: Q01DX009 (ip), vehicle: other) was 103 % of control. The T/C (dose: 200.0 mg/kg/injection, schedule: Q01DX009 (ip), vehicle: other) was 97 % of control and the T/C (dose: 400.0 mg/kg/injection, schedule: Q01DX009 (ip), vehicle: other) was 112 % of control.
